Biological target: EcThrRS (Escherichia coli, UniProt P0A8M3)
Assay: tRNA aminoacylation assay, initial rates, dose-response fit
Format: biochemical

Sequence of EcThrRS (P0A8M3 whole entry): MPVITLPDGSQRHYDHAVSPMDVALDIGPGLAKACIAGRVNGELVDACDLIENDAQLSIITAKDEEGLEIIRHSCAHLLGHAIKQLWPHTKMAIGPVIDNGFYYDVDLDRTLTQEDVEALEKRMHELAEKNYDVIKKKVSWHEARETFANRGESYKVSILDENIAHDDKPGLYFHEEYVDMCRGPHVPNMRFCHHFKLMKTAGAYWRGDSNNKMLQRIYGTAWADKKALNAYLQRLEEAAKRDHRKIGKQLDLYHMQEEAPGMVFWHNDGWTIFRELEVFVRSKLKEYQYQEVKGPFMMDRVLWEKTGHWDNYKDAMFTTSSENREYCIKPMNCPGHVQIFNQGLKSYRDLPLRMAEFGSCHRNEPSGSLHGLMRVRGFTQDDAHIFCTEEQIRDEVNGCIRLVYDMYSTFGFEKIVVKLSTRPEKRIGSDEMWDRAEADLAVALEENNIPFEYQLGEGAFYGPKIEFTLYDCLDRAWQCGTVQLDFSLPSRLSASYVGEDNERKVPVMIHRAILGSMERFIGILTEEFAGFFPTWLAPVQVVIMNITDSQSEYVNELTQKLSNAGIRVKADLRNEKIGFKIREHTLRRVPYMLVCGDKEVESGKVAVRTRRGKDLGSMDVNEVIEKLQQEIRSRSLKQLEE

- IC50: 92 ± 21 nM
Compound: O=C(N[C@@H]1C(=O)O[C@@H]1Cc1ccc([N+](=O)[O-])cc1)c1cccc(O)c1O [compound 1, obafluorin]

— article doi:10.1101/704981v1 (biorxiv, 2019)
